Key:
angiogenesis = conditions: from the literature; cited from earlier work
[1] = test system: developing Xenopus embryos; assay: Xenopus embryo angiogenesis, in situ hybridization for erg/apinr and kdr:GFP imaging; assay type: in vivo, Xenopus laevis; conditions: for anti-angiogenic activity of other benzimidazoles: Xenopus in vivo, at dosages at which TBZ reduces angiogenesis (FIG. 14)
Excerpt: (§1) Female adult Xenopus were ovulated by injections of human chorionic gonadotropin, and eggs were fertilized in vitro and dejellied in 3% cysteine (pH 7.9) and subsequently reared in ⅓×Marc's modified Ringer's (MMR) solution. For microinjections, embryos were placed in a solution of 2% Ficoll in ⅓×MMR solution, injected using forceps and an Oxford universal manipulator, reared in 2% Ficoll in ⅓×MMR to stage 9, then washed and reared in ⅓×MMR solution alone. For bilateral rab11b knock-down experiments, the posterior cardinal vein and intersomitic veins were targeted by injecting Morpholino antisense oligonucleotides (MOs) into the two ventral cells equatorially at the four-cell stage. For unilateral knockdown, only one ventral cell was injected. MOs were injected at 40 ng per blastomere. For the experiments to see the drug effects, embryos were placed in a solution of each chemical dissolved in 1% DMSO diluted in ⅓×MMR during indicated stages. For bead micro-surgery implantation, Affi-Gel Blue Gel beads (Bio-Rad) were soaked with 0.7 mg/ml recombinant mouse VEGF 164 aa (R&D systems) or BSA as a control. Whole-mount in situ hybridization for erg and apinr was performed as described^29.
To analyze action of TBZ precisely on inhibition of angiogenesis and disruption of vasculature, we tested TBZ on two different developmental stages. Xenopus late tailbud embryos at stage 31 were selected for testing the inhibitory effect of TBZ on angiogenesis (FIG. 3A-D). This embryonic stage coincides with the onset of intersomitic vein (ISV) angiogenesis, the process of forming smaller blood vessels by sprouting from pre-existing blood vessels. To observe disruption of existing vasculature, we selected stage 35/36 embryos in which the posterior cardinal vein (PCV) and ISV are already developed (FIG. 15).

HUVECs = assay: HUVEC wound scratch cell migration assay; assay type: cell-based, human; conditions: added to 250 μM TBZ in 1% DMSO; Y27632 preincubated 2 h
Protocol: HUVECs (1.2×10^5 cells) were seeded into 24-well plate for 24 h, and the monolayers were wounded identically. Then, cells were washed with PBS and treated with EBM-2 containing 1% DMSO or 250 μM TBZ dissolved in 1% DMSO with combination of Y27632 or GGPP (Sigma). In the case of Y27632 treatment, cells were preincubated for 2 h before wounding. Cells were photographed at time zero and after 15 h, and the ratios of cell free area [(0 h-15 h)/0 h] were calculated.

Xenopus embryos = assay: Xenopus embryo morphology and developmental defects; assay type: in vivo; conditions: FIG. 14; 250 μM for 2-(Chloromethyl)benzimidazole
Excerpt: as §1, with “1⁄3×Marc's” for “⅓×Marc's”, “1⁄3×MMR” for “⅓×MMR”, “[…] performed as described^29. Immunostaining for Xenopus” for “erg and apinr”, “previously described (Lee et al., 2008). Embryos at stage 35-36 were fixed in 1×MEMFA. 12/101 (1:500; DSHB), and primary antibodies were detected with Alexa Fluor-488 or 555 goat anti-mouse Immunoglobulin (IgG).” for “described^29.”

lung cancer = conditions: treatment of lung cancer; cited from earlier work

Compound | Known effects on angiogenesis (angiogenesis) | anti-angiogenic activity of other benzimidazoles [1] | also measured
O=S(=O)([O-])[O-].[Cu+2] [CuSO4] | Activators^‡ |  | 
Nc1nc2ccc(C(=O)c3ccc(F)cc3)cc2[nH]1 [2-Aminoflubendazole] |  | not anti-angiogenic | 
O=C(O)c1cccc2[nH]cnc12 [1H-Benzimidazole-4-carboxylic acid] |  | not anti-angiogenic | 
Clc1ccc2nc(C(Cl)(Cl)Cl)[nH]c2c1 [5-Chloro-2-(trichloromethyl)benzimidazole] |  | not anti-angiogenic | 
[N]=O [Nitric oxide] | Activator^# |  | 
C[C@@H](N)[C@H]1CC[C@H](C(=O)Nc2ccncc2)CC1 [Y27632] |  |  | reversal of TBZ-impeded HUVEC migration by added compound (HUVECs): significant and dose-dependent rescue
CC[C@H](C)C(=O)O[C@H]1C[C@@H](C)C=C2C=C[C@H](C)[C@H](CC[C@@H]3C[C@@H](O)CC(=O)O3)[C@H]21 [lovastatin] | inhibit angiogenesis |  | 
COc1c(C)c2c(c(O)c1C/C=C(\C)CCC(=O)O)C(=O)OC2 [Mycophenolic acid] | Inhibitor* |  | 
ClCc1nc2ccccc2[nH]1 [2-(Chloromethyl)benzimidazole] |  | not anti-angiogenic | developmental (birth) defects in Xenopus (Xenopus embryos): pleiotropic birth defects
Cc1ccc2c(=O)c3cccc(CC(=O)O)c3oc2c1C [ASA404] |  |  | efficacy in Phase III clinical trial (lung cancer): failed to show efficacy
CC(C)=CCC/C(C)=C/CC/C(C)=C/CC/C(C)=C/COP(=O)(O)OP(=O)(O)O [GGPP, geranyl-geranyl pyrophosphate] |  |  | reversal of TBZ-impeded HUVEC migration by added compound (HUVECs): did not reverse
c1ccc2[nH]cnc2c1 [Benzimidazole] |  | not anti-angiogenic | activity in reducing angiogenesis ([1]; doses up to 1 mM): inactive
O=c1[nH]cc(F)c(=O)[nH]1 [5-fluorouracil] | Inhibitor^† |  | 
Nc1ccc2[nH]c(C(F)(F)F)nc2c1 [5-Amino-2-(trifluoromethyl)benzimidazole] |  | not anti-angiogenic | 

From patent publication US20140303216A1, “COMPOSITIONS AND METHODS FOR INDUCING DISRUPTION OF BLOOD VASCULATURE AND FOR REDUCING ANGIOGENESIS” (BOARD OF REGENTS, THE UNIVERSITY OF TEXAS SYSTEM, priority 2011, published 2014)
